{"source": "patent US9617221B2", "about": "“Kinase modulators for the treatment of cancer” (Synovo GmbH, priority 2010, dated 2017)", "format_in_all_cases": "cell-based, mice", "key": {"IFN-g": {"system": "IFN-g", "test": "IFN-g production by ConA-stimulated T cells", "details": "10 μM, 72 h", "description": "(§1) Peritoneal macrophage or splenocytes (lymphocytes and macrophage) were harvested from donor mice using standard techniques. Cells were placed in culture and stimulated with either LPS (10 μg/mL) or concanavalin A 5 μg/mL (Sigma Chemical Co., St Louis, Mo.) in RPMI-1640 medium supplemented with antibiotics, […] 2-mercaptoethanol, 10 mm HEPES buffer and 10% fetal calf serum (FCS) (see Holan et al., 1985) to stimulate macrophage and T-cells respectively. Compounds were added from DMSO stock solutions to a final concentration of 50 μM or less with DMSO not exceeding 1% of total volume. After 72 h, cell supernatant was recovered and the cytokine levels were estimated by ELISA. The effect of compounds on cytokine production was recorded as follows: […]"}, "IL-6": {"system": "IL-6", "test": "IL-6 production by LPS-stimulated macrophages", "details": "10 μM, 72 h", "description": "as §1"}, "IL-1β": {"system": "IL-1β", "test": "IL-1β production by LPS-stimulated macrophages", "details": "5 μM, 72 h", "description": "as §1"}, "IL-10 [1]": {"system": "IL-10", "test": "IL-10 production by LPS-stimulated murine peritoneal macrophage (ELISA)", "details": "for IL-10 by ELISA, % of solvent treated control: murine peritoneal macrophage", "description": "as §1"}, "IL-4": {"system": "IL-4", "test": "IL-4 production, Con A, spleen", "details": "5 μM, 72 h", "description": "as §1"}, "IL-10 [2]": {"system": "IL-10", "test": "IL-10 production by ConA-stimulated T cells", "details": "10 μM, 72 h", "description": "as §1"}, "T cells": {"system": "T cells", "test": "Proliferation of Con A-stimulated T cells", "details": "10 μM", "description": "as §1"}, "IL-2": {"system": "IL-2", "test": "IL-2 production by ConA-stimulated T cells", "details": "10 μM, 72 h", "description": "as §1"}, "B cells": {"system": "B cells", "test": "Proliferation of LPS-stimulated B cells", "details": "10 μM"}, "NO": {"system": "NO", "test": "NO production by LPS-stimulated macrophages", "details": "10 μM, 72 h"}}, "note": "Where “and” joins values, the source holds several entries; their conditions need not be identical. Equal entries are not always repeated.", "data": [{"smiles": "CC[C@H]1OC(=O)[C@H](C)[C@@H](O[C@H]2C[C@@](C)(OC)[C@@H](O)[C@H](C)O2)[C@H](C)[C@@H](O[C@@H]2O[C@H](C)C[C@H](N(C)CC(O)CSc3nc(-c4ccc(F)cc4)c(-c4ccncc4)[nH]3)[C@H]2O)[C@](C)(O)C[C@@H](C)C(=O)[C@H](C)[C@@H](O)[C@]1(C)O", "note": "(stereo partly shown) [Compound 21]", "values": [{"measurement": "IFN-g (ConA, T cells), amount of cytokine", "setting": "IFN-g", "result": "0 % of control treated with solvent alone"}, {"measurement": "IL-6 (LPS, Macrophages), amount of cytokine", "setting": "IL-6", "result": "101 % of control treated with solvent alone"}, {"measurement": "IL-1β (Macrophages, LPS), amount of cytokine", "setting": "IL-1β", "result": "101 % of control treated with solvent alone and 143 % of control treated with solvent alone"}, {"measurement": "IL-10 by ELISA, % of solvent treated control", "setting": "IL-10 [1]; 0.31 μM inhibitor in medium", "result": "132 % of solvent treated control"}, {"measurement": "IL-10 by ELISA, % of solvent treated control", "setting": "IL-10 [1]; 1.25 μM inhibitor in medium", "result": "95 % of solvent treated control"}, {"measurement": "IL-10 by ELISA, % of solvent treated control", "setting": "IL-10 [1]; 5 μM inhibitor in medium", "result": "1 % of solvent treated control"}, {"measurement": "IL-10 by ELISA, % of solvent treated control", "setting": "IL-10 [1]; 10 μM inhibitor in medium", "result": "−13 % of solvent treated control"}, {"measurement": "IL-10 by ELISA, % of solvent treated control", "setting": "IL-10 [1]; 20 μM inhibitor in medium", "result": "−8 % of solvent treated control"}]}, {"smiles": "CC[C@H]1OC(=O)[C@H](C)[C@@H](O[C@H]2C[C@@](C)(OC)[C@@H](O)[C@H](C)O2)[C@H](C)[C@@H](O[C@@H]2O[C@H](C)C[C@H](N(C)CCCC(=O)OCC(O)COc3cccc(C(=O)c4cnn(-c5ccc(F)cc5)c4N)c3)[C@H]2O)[C@](C)(O)C[C@@H](C)CN(C)[C@H](C)[C@@H](O)[C@]1(C)O", "note": "(stereo partly shown) [Compound 43h]", "values": [{"measurement": "IL-4 (Con A, spleen), amount of cytokine", "setting": "IL-4", "result": "280 % of control treated with solvent alone"}, {"measurement": "IL-10 by ELISA, % of solvent treated control", "setting": "IL-10 [1]; 1.25 μM inhibitor in medium", "result": "68 % of solvent treated control"}, {"measurement": "IL-10 by ELISA, % of solvent treated control", "setting": "IL-10 [1]; 5 μM inhibitor in medium", "result": "52 % of solvent treated control"}, {"measurement": "IL-10 by ELISA, % of solvent treated control", "setting": "IL-10 [1]; 20 μM inhibitor in medium", "result": "−11 % of solvent treated control"}]}, {"smiles": "CC[C@H]1OC(=O)[C@H](C)[C@@H](O[C@H]2C[C@@](C)(OC)[C@@H](O)[C@H](C)O2)[C@H](C)[C@@H](O[C@@H]2O[C@H](C)C[C@H](N(C)CCCC(=O)OCC(O)CSc3nc(-c4ccc(F)cc4)c(-c4ccnc(NC(C)c5ccccc5)c4)[nH]3)[C@H]2O)[C@](C)(O)C[C@@H](C)CN(C)[C@H](C)[C@@H](O)[C@]1(C)O", "note": "(stereo partly shown) [Compound 43i]", "values": [{"measurement": "IL-6 (LPS, Macrophages), amount of cytokine", "setting": "IL-6", "result": "33 % of control treated with solvent alone and 32 % of control treated with solvent alone"}, {"measurement": "IL-4 (Con A, spleen), amount of cytokine", "setting": "IL-4", "result": "8 % of control treated with solvent alone"}, {"measurement": "IL-10 by ELISA, % of solvent treated control", "setting": "IL-10 [1]; 2 μM inhibitor in medium", "result": "25 % of solvent treated control"}, {"measurement": "IL-10 by ELISA, % of solvent treated control", "setting": "IL-10 [1]; 10 μM inhibitor in medium", "result": "3 % of solvent treated control"}, {"measurement": "IL-10 by ELISA, % of solvent treated control", "setting": "IL-10 [1]; 50 μM inhibitor in medium", "result": "0 % of solvent treated control"}]}, {"smiles": "CC[C@H]1OC(=O)[C@H](C)[C@@H](O[C@H]2C[C@@](C)(OC)[C@@H](O)[C@H](C)O2)[C@H](C)[C@@H](O[C@@H]2O[C@H](C)C[C@H](N(C)CCCCCC(=O)OCCSc3nc(-c4ccc(F)cc4)c(-c4ccnc(NC(C)C)c4)[nH]3)[C@H]2O)[C@](C)(O)C[C@@H](C)CN(C)[C@H](C)[C@@H](O)[C@]1(C)O", "note": "[Compound 43k]", "values": [{"measurement": "IL-10 (ConA, T cells), amount of cytokine", "setting": "IL-10 [2]", "result": "0 % of control treated with solvent alone"}, {"measurement": "Proliferation (Con A, T cells)", "setting": "T cells", "result": "−1 % of control treated with solvent alone"}, {"measurement": "IFN-g (ConA, T cells), amount of cytokine", "setting": "IFN-g", "result": "0 % of control treated with solvent alone"}, {"measurement": "IL-2 (ConA, T cells), amount of cytokine", "setting": "IL-2", "result": "0 % of control treated with solvent alone"}, {"measurement": "IL-6 (LPS, Macrophages), amount of cytokine", "setting": "IL-6", "result": "22 % of control treated with solvent alone"}, {"measurement": "Proliferation (LPS, B cells)", "setting": "B cells", "result": "−8 % of control treated with solvent alone"}, {"measurement": "IL-10 by ELISA, % of solvent treated control", "setting": "IL-10 [1]; 2 μM inhibitor in medium", "result": "−6 % of solvent treated control"}, {"measurement": "IL-10 by ELISA, % of solvent treated control", "setting": "IL-10 [1]; 10 μM inhibitor in medium", "result": "−8 % of solvent treated control"}, {"measurement": "IL-10 (LPS, Macrophages), amount of cytokine", "setting": "IL-10 [1]; 10 μM, LPS, macrophages, 72 h", "result": "−8 % of control treated with solvent alone"}, {"measurement": "IL-10 by ELISA, % of solvent treated control", "setting": "IL-10 [1]; 50 μM inhibitor in medium", "result": "−9 % of solvent treated control"}, {"measurement": "NO (LPS, Macrophages), % of control treated with solvent alone", "setting": "NO", "result": "−1 % of control treated with solvent alone"}]}]}
